From patent US6730705B1, “Alkoximino acetic acid amides” (Bayer Aktiengesellschaft, priority 1995, dated 2004)

Legend:
[1] = log p (physical constant, Table 7)
[2] = log p (physical constant of Table 7); conditions: single isomer (E or Z as listed in Table 7)
[3] = E/Z isomer mixture, first of two printed values (x/y)
[4] = E/Z isomer mixture, second of two printed values (x/y)

| Structure (SMILES) | log p ([1]; physical constant of Table 7) | also measured |
| --- | --- | --- |
| CON=C(C(=O)NCCc1ccc(OC)c(OC)c1)c1ccc(C)cc1 (mixture of isomers) [Compound 41] | – | log p [1, 3]: 2.53; log p [1, 4]: 2.77 |
| CCON=C(C(=O)NCCc1ccc(OC)c(OC)c1)c1ccc(Cl)cc1 (mixture of isomers) [Compound 77] | – | log p [1, 3]: 3.07; log p [1, 4]: 3.34 |
| CO/N=C(/C(=O)NCCc1ccc(OC)c(OC)c1)c1ccc(Cl)cc1 [Compound 24] | log p: 2.99 | – |
| CON=C(C(=O)NCCc1ccc(OC)c(OC)c1)c1ccc(C)s1 [Compound 73] | log p: 2.46 | – |
| CCc1ccc(/C(=N\OC)C(=O)NCCc2ccc(OC)c(OC)c2)cc1 [Compound 81] | log p: 2.86 | – |
| CCOc1ccc(/C(=N\OC)C(=O)NCCc2ccc(OC)c(OC)c2)cc1 [Compound 82] | log p: 2.59 | – |
| CO/N=C(\C(=O)NCCc1ccc(OC)c(OC)c1)c1ccc(C)c(C)c1 [Compound 91] | log p: 3.00 | – |
| CO/N=C(/C(=O)NCCc1ccc(OC)c(OC)c1)c1ccc(Br)cc1 [Compound 96] | log p: 2.82 | – |
| CO/N=C(/C(=O)NCCc1ccc(OC)c(OC)c1)c1ccc(F)cc1 [Compound 98] | log p: 2.39 | – |
| CO/N=C(/C(=O)NCCc1ccc(OC)c(OC)c1)c1ccc(C)c(C)c1 [Compound 99] | log p: 2.75 | – |
| CCO/N=C(/C(=O)NCCc1ccc(OC)c(OC)c1)c1ccc(C)cc1 [Compound 110] | log p: 2.85 | – |
| CON=C(C(=O)NCCc1ccc(OC)c(OC)c1)c1ccc2c(c1)CCC2 [Compound 114] | log p: 3.01 | – |
| CON=C(C(=O)NCCc1ccc(OC)c(OC)c1)c1ccc2c(c1)CCCC2 [Compound 117] | log p: 3.44 | – |
| CCCc1ccc(C(=NOC)C(=O)NCCc2ccc(OC)c(OC)c2)cc1 [Compound 124] | log p: 3.25 | – |
| CON=C(C(=O)NCCc1ccc(OC)c(OC)c1)c1ccc(OCc2ccccc2)cc1 [Compound 126] | log p: 3.49 | – |
| CCc1ccc(C(=NOC)C(=O)NCCc2ccc(OC)c(OC)c2)s1 [Compound 127] | log p: 3.22 | – |
| CCCCc1ccc(C(=NOC)C(=O)NCCc2ccc(OC)c(OC)c2)cc1 [Compound 132] | log p: 3.62 | – |
| CCc1ccc(C(=NOC)C(=O)NCCc2ccc(OC)c(OC)c2)s1 [Compound 143] | log p: 2.77 | – |
| CCON=C(C(=O)NCCc1ccc(OC)c(OC)c1)c1ccc(Br)cc1 [Compound 146] | log p: 3.15 | – |
| CCON=C(C(=O)NCCc1ccc(OC)c(OC)c1)c1ccc2c(c1)CCC2 [Compound 170] | – | log p [2]: log p: 3.25 |
| CO/N=C(/C(=O)NCCc1ccc(OC)c(OC)c1)c1ccc(C2CCCCC2)cc1 [Compound 171] | – | log p [2]: log p: 4.03 |
| CCON=C(C(=O)NCCc1ccc(OC)c(OC)c1)c1ccc2c(c1)CCCC2 [Compound 173] | – | log p [2]: log p: 3.53 |
